In paper doi:10.1101/2025.11.04.686469, “Discovery of Host-Directed Small Molecules with Broad Anti-Leishmanial Efficacy” (bioRxiv, 2025):

Legend:
[1] = test system: intracellular L. mexicana amastigotes; experiment: microbe, parasite or virus in culture; type: cell-based, Leishmania mexicana; details: bone marrow derived macrophages, Giemsa staining
Description: Bone marrow derived macrophages (BMDMs) were isolated from BALB/c mice and cultured as previously described. Briefly, bone marrow was harvested from long bones of mice and the isolated cells were seeded at a concentration of 2 x 10^6 cells/mL in petri dishes with RPMI media supplemented with 10% FBS, 1% Penn-Strep and 10% L929 conditioned media (LCM). Completely differentiated BMDMs are obtained after 7 days of culture with media change every 2 days. Harvested cells were seeded onto 10 mm glass cover slips at 5 x 10^5 cells/ well of a 24 well plate in DMEM media (without LCM) and allowed to adhere overnight. BMDM cells are then infected overnight with LV82 L. donovani or L. mexicana (NR-51210) at a multiplicity of infection of 10. After infection, cells were washed three times with fresh media to remove extracellular promastigotes and treated with compounds for a 72-hour incubation. BMDM cells were then washed with phosphate buffered saline, fixed with ice-cold methanol, and stained with Giemsa (5% v/v in water). The cover slips with stained cells are mounted onto glass slides and imaged on EVOS XL (100X, Thermo Fisher Scientific). Leishmania amastigotes per 100 macrophages were determined in a blinded manner.

lysozyme = biological target: T1, lysozyme (Homo sapiens, UniProt P61626); experiment: Thermal proteome profiling in Leishmania infected macrophage lysate; type: binding; details: ligand 100 μM
T1 construct: endogenous in cells; host or cells: THP-1 cells differentiated with PMA and infected with L. mexicana promastigotes; cell lysate
T1 sequence (P61626 19-148): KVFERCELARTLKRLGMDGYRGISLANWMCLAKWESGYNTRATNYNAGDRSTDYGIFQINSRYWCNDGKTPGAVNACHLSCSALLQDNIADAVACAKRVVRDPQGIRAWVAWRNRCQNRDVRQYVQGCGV
Description: To generate cell lysate, ten million THP-1 cells were plated overnight in a 10cm dish, then differentiated with 150 nM phorbol 12-myristate 13-acetate (PMA) for 72 hours. The resulting macrophages were infected with L. mexicana promastigotes at a multiplicity of infection of 10 and incubated for 18 hours. After infection, cells were washed three times with PBS to remove extracellular promastigotes. Cells were then collected by scraping and pelleted with centrifugation. The cell pellet was resuspended in phosphate buffered saline and subjected to five freeze-thaw cycles. Samples were centrifuged 14,000g x 10 minutes to remove cellular debris. Protein concentration of supernatant was determined by BCA assay and cell lysate was stored at −80 °C until further use.
The cell lysate was divided into two portions. One portion was spiked with the 197 ligand in DMSO to generate the with ligand sample; and the other portion was spiked with DMSO to generate the without ligand sample. The final concentration of […] in the with ligand sample was 100 μM, and both the without and with ligand samples contained 1% DMSO. The with and without samples were each subjected five replicate one-pot TPP analyses like that previously described.[20–22] […]

[2] = test system: intracellular L. donovani amastigotes; experiment: Luminescent-based evaluation of intracellular anti-leishmanial activity in THP-1 macrophages; type: cell-based, Leishmania donovani; details: Leishmania donovani, THP-1; THP1 macrophages, luminescence assay, 72 hours of treatment; read-out: Intracellular L. donovani amastigotes Lum IC50
Outline: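 PMA-differentiated THP-1 macrophages (150 nM, 72 h) were infected 18 h with firefly luciferase-expressing L. donovani LV82 promastigotes, then washed. Infected cells were treated with compounds at 0.1-10 μM for 72 h. Surviving intracellular amastigotes were quantified by firefly luciferase luminescence after cell lysis and 10 min substrate incubation at room temperature.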

`O=C(CNCc1cccc(F)c1)Nc1ccc(-n2cc(C(F)(F)F)nc2-c2ccc(-c3ccc(C(F)(F)F)cc3)cc2)cc1` [Compound 197] was tested, and the IC50 ([1]; Leishmania mexicana, Macrophage) was less than 2000 nM, the IC50 [1] was 1700 nM and the “TPP z-score for lysozyme” value (lysozyme) was 4.32. For the same compound, the IC50 [2] was 2400 nM.
